Where a name gives a salt, the structure may show the parent alone. ± gives the standard deviation of the averaged measurements.
What was measured:
Test in all cases: relative viability vs DMSO control (72 h) (fraction); higher = more viable cells
[1] = test system: G401
Outline: (§1)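 Densities for seeding sarcoma cell lines into 384-well plates were set to give 80–90% confluence. After 24 h, 2.5 µl of serially diluted compound from source plates of 10 mM to 0.0002 mM went in, and plates stayed 72 h at 37 °C in 5% CO2 with 0.1% DMSO vehicle and a 5 µM positive control. Percent growth from ATPLite readings, averaged over up to triplicate wells, served as relative viability, rescaled so 1 means full and 0 means none.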

[2] = test system: HT1080
Outline: as §1

[3] = test system: KHOS-NP
Outline: as §1

[4] = test system: MES-SA
Outline: as §1

[5] = test system: RD-ES
Outline: as §1

[6] = test system: RD
Outline: as §1

[7] = test system: SK-ES-1
Outline: as §1

[8] = test system: SK-LMS-1
Outline: as §1

[9] = test system: SW1353
Outline: as §1

[10] = test system: SW684
Outline: as §1

[11] = test system: SW872
Outline: as §1

[12] = test system: VA-ES-BJ
Outline: as §1

## C=C1C[C@@H]2CC[C@@]34C[C@H]5O[C@H]6[C@@H](O3)[C@H]3O[C@H](CC[C@@H]3O[C@H]6[C@H]5O4)CC(=O)C[C@@H]3[C@@H](OC)[C@@H](C[C@H](O)CN)O[C@H]3C[C@H]3O[C@@H](CC[C@@H]1O2)C[C@@H](C)C3=C [Eribulin Mesylate]
[1]; 1.37 pM
  relative viability: 1.08 ± 0.022
[1]; 4.1 pM
  relative viability: 1.06 ± 0.04
[1]; 12.3 pM
  relative viability: 1.06 ± 0.027
[1]; 37 pM
  relative viability: 0.814 ± 0.14
[1]; 0.00011 µM
  relative viability: 0.736 ± 0.081
[1]; 0.00033 µM
  relative viability: 0.604 ± 0.049
[1]; 0.001 µM
  relative viability: 0.513 ± 0.0063
[1]; 0.003 µM
  relative viability: 0.452 ± 0.011
[1]; 0.009 µM
  relative viability: 0.417 ± 0.011
[1]; 0.027 µM
  relative viability: 0.366 ± 0.0054
[1]; 460 fM
  relative viability: 1.05 ± 0.025
[2]; 1.37 pM
  relative viability: 1.1 ± 0.019
[2]; 4.1 pM
  relative viability: 1.08 ± 0.066
[2]; 12.3 pM
  relative viability: 1 ± 0.022
[2]; 37 pM
  relative viability: 0.959 ± 0.11
[2]; 0.00011 µM
  relative viability: 0.779 ± 0.3
[2]; 0.00033 µM
  relative viability: 0.178 ± 0.02
[2]; 0.001 µM
  relative viability: 0.08945 ± 0.00049
[2]; 0.003 µM
  relative viability: 0.06 ± 0.0063
[2]; 0.009 µM
  relative viability: 0.0428 ± 0.0026
[2]; 0.027 µM
  relative viability: 0.043 ± 0.0026
[2]; 460 fM
  relative viability: 1.054 ± 0.0021
[3]; 1.37 pM
  relative viability: 1.11 ± 0.015
[3]; 4.1 pM
  relative viability: 1.119 ± 0.0095
[3]; 12.3 pM
  relative viability: 1.113 ± 0.0096
[3]; 37 pM
  relative viability: 1.11 ± 0.026
[3]; 0.00011 µM
  relative viability: 1.1 ± 0.018
[3]; 0.00033 µM
  relative viability: 1.05 ± 0.044
[3]; 0.001 µM
  relative viability: 0.922 ± 0.043
[3]; 0.003 µM
  relative viability: 0.669 ± 0.079
[3]; 0.009 µM
  relative viability: 0.479 ± 0.032
[3]; 0.027 µM
  relative viability: 0.438 ± 0.02
[3]; 460 fM
  relative viability: 1.1 ± 0.035
[4]; 1.37 pM
  relative viability: 1.01 ± 0.021
[4]; 4.1 pM
  relative viability: 0.996 ± 0.018
[4]; 12.3 pM
  relative viability: 0.973 ± 0.011
[4]; 37 pM
  relative viability: 0.425 ± 0.018
[4]; 0.00011 µM
  relative viability: 0.472 ± 0.049
[4]; 0.00033 µM
  relative viability: 0.311 ± 0.0072
[4]; 0.001 µM
  relative viability: 0.254 ± 0.017
[4]; 0.003 µM
  relative viability: 0.178 ± 0.0044
[4]; 0.009 µM
  relative viability: 0.122 ± 0.0053
[4]; 0.027 µM
  relative viability: 0.109 ± 0.0048
[4]; 460 fM
  relative viability: 0.996 ± 0.016
[5]; 1.37 pM
  relative viability: 1.04 ± 0.026
[5]; 4.1 pM
  relative viability: 1.02 ± 0.054
[5]; 12.3 pM
  relative viability: 0.953 ± 0.075
[5]; 37 pM
  relative viability: 0.472 ± 0.094
[5]; 0.00011 µM
  relative viability: 0.0831 ± 0.012
[5]; 0.00033 µM
  relative viability: 0.0672 ± 0.0097
[5]; 0.001 µM
  relative viability: 0.041 ± 0.0083
[5]; 0.003 µM
  relative viability: 0.0209 ± 0.0047
[5]; 0.009 µM
  relative viability: 0.0188 ± 0.0046
[5]; 0.027 µM
  relative viability: 0.0232 ± 0.00079
[5]; 460 fM
  relative viability: 1.02 ± 0.0065
[6]; 1.37 pM
  relative viability: 1.069 ± 0.0092
[6]; 4.1 pM
  relative viability: 1.041 ± 0.01
[6]; 12.3 pM
  relative viability: 0.9352 ± 0.005
[6]; 37 pM
  relative viability: 0.683 ± 0.023
[6]; 0.00011 µM
  relative viability: 0.442 ± 0.02
[6]; 0.00033 µM
  relative viability: 0.268 ± 0.016
[6]; 0.001 µM
  relative viability: 0.254 ± 0.014
[6]; 0.003 µM
  relative viability: 0.247 ± 0.0058
[6]; 0.009 µM
  relative viability: 0.273 ± 0.0059
[6]; 0.027 µM
  relative viability: 0.254 ± 0.015
[6]; 460 fM
  relative viability: 1.07 ± 0.041
[7]; 1.37 pM
  relative viability: 1.05 ± 0.065
[7]; 4.1 pM
  relative viability: 1.06 ± 0.11
[7]; 12.3 pM
  relative viability: 0.861 ± 0.078
[7]; 37 pM
  relative viability: 0.0486 ± 0.0039
[7]; 0.00011 µM
  relative viability: 0.0799 ± 0.011
[7]; 0.00033 µM
  relative viability: 0.0234 ± 0.0067
[7]; 0.001 µM
  relative viability: 0.0171 ± 0.0017
[7]; 0.003 µM
  relative viability: 0.0147 ± 0.00035
[7]; 0.009 µM
  relative viability: 0.0166 ± 0.0027
[7]; 0.027 µM
  relative viability: 0.019 ± 0.0013
[7]; 460 fM
  relative viability: 1.07 ± 0.088
[8]; 1.37 pM
  relative viability: 0.971 ± 0.049
[8]; 4.1 pM
  relative viability: 0.952 ± 0.048
[8]; 12.3 pM
  relative viability: 0.909 ± 0.018
[8]; 37 pM
  relative viability: 0.819 ± 0.02
[8]; 0.00011 µM
  relative viability: 0.708 ± 0.048
[8]; 0.00033 µM
  relative viability: 0.52 ± 0.056
[8]; 0.001 µM
  relative viability: 0.482 ± 0.016
[8]; 0.003 µM
  relative viability: 0.392 ± 0.016
[8]; 0.009 µM
  relative viability: 0.359 ± 0.018
[8]; 0.027 µM
  relative viability: 0.308 ± 0.021
[8]; 460 fM
  relative viability: 0.996 ± 0.049
[9]; 1.37 pM
  relative viability: 1.13 ± 0.027
[9]; 4.1 pM
  relative viability: 1.08 ± 0.022
[9]; 12.3 pM
  relative viability: 1.06 ± 0.016
[9]; 37 pM
  relative viability: 0.975 ± 0.03
[9]; 0.00011 µM
  relative viability: 0.935 ± 0.11
[9]; 0.00033 µM
  relative viability: 0.702 ± 0.031
[9]; 0.001 µM
  relative viability: 0.56 ± 0.02
[9]; 0.003 µM
  relative viability: 0.497 ± 0.018
[9]; 0.009 µM
  relative viability: 0.474 ± 0.026
[9]; 0.027 µM
  relative viability: 0.441 ± 0.022
[9]; 460 fM
  relative viability: 1.16 ± 0.049
[10]; 1.37 pM
  relative viability: 1.16 ± 0.054
[10]; 4.1 pM
  relative viability: 1.13 ± 0.034
[10]; 12.3 pM
  relative viability: 1.11 ± 0.03
[10]; 37 pM
  relative viability: 0.994 ± 0.028
[10]; 0.00011 µM
  relative viability: 1 ± 0.029
[10]; 0.00033 µM
  relative viability: 0.865 ± 0.035
[10]; 0.001 µM
  relative viability: 0.806 ± 0.051
[10]; 0.003 µM
  relative viability: 0.812 ± 0.023
[10]; 0.009 µM
  relative viability: 0.822 ± 0.031
[10]; 0.027 µM
  relative viability: 0.828 ± 0.08
[10]; 460 fM
  relative viability: 1.15 ± 0.029
[11]; 1.37 pM
  relative viability: 1.08 ± 0.049
[11]; 4.1 pM
  relative viability: 1.09 ± 0.045
[11]; 12.3 pM
  relative viability: 1.06 ± 0.027
[11]; 37 pM
  relative viability: 0.946 ± 0.029
[11]; 0.00011 µM
  relative viability: 0.869 ± 0.025
[11]; 0.00033 µM
  relative viability: 0.8125 ± 0.003
[11]; 0.001 µM
  relative viability: 0.686 ± 0.028
[11]; 0.003 µM
  relative viability: 0.567 ± 0.018
[11]; 0.009 µM
  relative viability: 0.4921 ± 0.0027
[11]; 0.027 µM
  relative viability: 0.429 ± 0.045
[11]; 460 fM
  relative viability: 1.1 ± 0.035
[12]; 1.37 pM
  relative viability: 1.06 ± 0.018
[12]; 4.1 pM
  relative viability: 1 ± 0.012
[12]; 12.3 pM
  relative viability: 0.901 ± 0.012
[12]; 37 pM
  relative viability: 0.72 ± 0.011
[12]; 0.00011 µM
  relative viability: 0.474 ± 0.018
[12]; 0.00033 µM
  relative viability: 0.391 ± 0.012
[12]; 0.001 µM
  relative viability: 0.437 ± 0.021
[12]; 0.003 µM
  relative viability: 0.359 ± 0.012
[12]; 0.009 µM
  relative viability: 0.295 ± 0.0034
[12]; 0.027 µM
  relative viability: 0.244 ± 0.012
[12]; 460 fM
  relative viability: 1.08 ± 0.023
